# Test results taken from US20070212339A1, “Use Of At Least One Effector Of Glutathione Metabolism Together With Alpha-Lipoic Acid For The Treatment Of Chronically Obstructive Lung Diseases” (ESPARMA GMBH, priority 2003, published 2007).
# Assays:
# [1] = system: alveolar macrophage cell line CRL 21-92 (NR8383); test: Membrane-bound thiol expression (CMTMR, flow cytofluorimetry) of artificially thiol-depleted alveolar macrophage cell line; type: cell-based; conditions: αLA 10.0 μg/ml alone, TDM
# Procedure: (§1) The established normal alveolar macrophage cell line CRL 21-92 (NR8383 [AgC11x3A; NR8383.1]) was used. The cells were taken up in special cell culture media and incubated in a gassing incubator at 37° C., a relative air humidity of 98% and a relative air-CO2 content of 5%. In order to check the influence of the combinations used according to the invention on the thiol status of thiol-deficient alveolar macrophages, these were artificially thiol-depleted. This came about by cultivation in thiol-deficient media (TDM) according to tested methods [Free Radic Biol Med 2000; 29:1160-1165]. Comparative cultures using complete media (RPMT 1640) were used for defining the best possible normal value under culture conditions. The expression of membrane-bound thiol groups was also determined by means of flow cytofluorimetry. Chloromethyl tetramethyl rhodamine (CMTMR) was used as the thiol conjugate under conditions of a blocked membrane potential and an inhibited diffusion capacity of the cells, [Exp Hematol 1997; 25(7): 601-607]. The fluorescence intensity of the bound fluorochrome molecules on the cell membrane is here again proportional to the quantity of thiol groups on the cell surface. Immortalised alveolar macrophages were artificially thiol-depleted in the above-described test assembly. The influence of the substances used according to the invention was checked over a period of 96 hours by measuring the intracellular thiol content and the membrane expression of thiols. Immortalised alveolar macrophages were artificially thiol-depleted in the test assembly described in Example 1. The influence of the substances used according to the invention was checked over a period of 96 hours by measuring the intracellular thiol content and the membrane expression of thiols.
# [2] = system: primary alveolar macrophages of COPD patients; test: Cellular thiol status (CMFDA) of primary alveolar macrophages of COPD patients; type: cell-based, human; conditions: for Thiols, intracellular (CMFDA)[%]: RPMI1640
# Procedure: The intercellular thiol content at the individual cell level was determined using 5-chloromethylfluorescein diacetate (CMFDA) in flow cytofluorimetry [Cytometry 1994; 15:349-358, Cytometry 1997; 29:76-82]. CMFDA which is primarily non-fluorogenic is here passively absorbed by the cell. Via the chloromethyl residue there is binding to cytoplasmatic thiol groups. After the acetate residues have been split off by unspecific cellular esterases, this complex which is now cell membrane-impermeable becomes fluorogenic at an excitation wavelength of λex=490 nm with an emission wavelength of λem=520 nm. The mean fluorescence intensity of the sample (10,000 cells) is directly proportional to the concentration of the intracellular thiol groups. Alveolar macrophages were isolated from the bronchoalveolar lavage fluid of COPD patients, taken up in cell culture medium and incubated in a gassing incubator at 37° C., a relative air humidity of 98% and a relative air-CO2 content of 7.5%. In order to check the influence of the combinations used according to the invention on the thiol status of the […] macrophages, in each case one fraction was treated with α-lipoic acid, the effector of glutathione metabolism ambroxol or with the combination of α-lipoic acid/ambroxol, whilst another fraction was used in each case as an untreated control. Untreated alveolar macrophages from healthy, non-COPD patients served as the normal comparison. The cellular thiol status was determined by means of the measuring method described under 1. The effect of the combination of α-lipoic acid and ambroxol in time kinetics over 96 hours in relation to healthy cells is shown in Table 5. In a test assembly identical to that of Example 3, alveolar macrophages from COPD patients were in each case treated with α-lipoic acid, the effector silibinin or with the combination of α-lipoic acid/silibinin, whilst another fraction was again used in each case as an untreated control. Untreated alveolar macrophages from healthy, non-COPD patients served here, too, as the normal comparison. The cellular thiol status was determined by means of the measuring method described under 1. The effect of the combination of α-lipoic acid and silibinin in time kinetics over 96 hours in relation to healthy cells is shown in Table 6.
# [3] = system: primary alveolar macrophages of COPD patients; test: Phagocytosis rate of primary alveolar macrophages of COPD patients (cytofluorimetric test with opsonized fluorochrome-marked bacteria); type: cell-based, human; conditions: for Phagoburst (mfi) [%]: RPMI1640; for phagocytosis rate: monosubstances, by comparison with the untreated control
# Procedure: In a similar procedure to the one described in Example 3, alveolar macrophages were isolated and cultivated ex vivo. The phagocytosis efficiency was determined by a cytofluorimetric test at the single-cell level. The macrophages were co-cultivated with opsonized and fluorochrome-marked bacteria. The amount of bacteria absorbed in a defined period of time was assessed quantitatively via the fluorescence intensity in the macrophages and counted as the measurement for their capacity for phagocytosis. The influence of the combinations used according to the invention on the capacity of the […] macrophages for phagocytosis after a treatment period of up to 96 hours is shown in Table 7.
# [4] = system: alveolar macrophage cell line CRL 21-92 (NR8383); test: Intracellular thiol content (CMFDA, flow cytofluorimetry) of artificially thiol-depleted alveolar macrophage cell line; type: cell-based; conditions: αLA 10.0 μg/ml alone, TDM
# Procedure: as §1, with “conditions. The intercellular thiol content at the individual cell level was determined using 5-chloromethylfluorescein diacetate (CMFDA) in flow cytofluorimetry [Cytometry 1994; 15:349-358, Cytometry 1997; 29:76-82]. CMFDA which is primarily non-fluorogenic is here passively absorbed by the cell. Via the chloromethyl residue there is binding to cytoplasmatic thiol groups. After the acetate residues have been split off by unspecific cellular esterases, this complex which is now cell membrane-impermeable becomes fluorogenic at an excitation wavelength of λex=490 nm with an emission wavelength of λem=520 nm. The mean fluorescence intensity of the sample (10,000 cells) is directly proportional to the concentration of the intracellular thiol groups.” for “conditions.”
smiles,measurement,setting,value
"O=C(O)CCCCC1CCSS1 (stereo not drawn) [αLA, α-lipoic acid]","Thiols, in membrane (CMTMR)[%]","[1]; Table 2, 24 h",91.1 ± 66.3%
same,"Thiols, in membrane (CMTMR)[%]","[1]; Table 2, 48 h",165.5 ± 36.3%
same,"Thiols, in membrane (CMTMR)[%]","[1]; Table 2, 72 h",82.3 ± 42.1%
same,"Thiols, in membrane (CMTMR)[%]","[1]; Table 2, 96 h",118.9 ± 76.6%
same,"Thiols, in membrane (CMTMR)[%]","[1]; Table 4, 24 h",108.8 ± 38.2%
same,"Thiols, in membrane (CMTMR)[%]","[1]; Table 4, 48 h",126.2 ± 68.6%
same,"Thiols, in membrane (CMTMR)[%]","[1]; Table 4, 72 h",90.7 ± 28.1%
same,"Thiols, in membrane (CMTMR)[%]","[1]; Table 4, 96 h",107.3 ± 57.4%
same,cellular thiol expression,"[2]; Example 3, monosubstances",no effect
same,cellular thiol expression,"[2]; Example 4, monosubstances",no modulation
same,"Thiols, intracellular (CMFDA)[%]","[2]; Table 5, 24 h, αLA 10.0 μg/ml alone",60.3 ± 21.0%
same,"Thiols, intracellular (CMFDA)[%]","[2]; Table 5, 48 h, αLA 10.0 μg/ml alone",58.0 ± 17.0%
same,"Thiols, intracellular (CMFDA)[%]","[2]; Table 5, 72 h, αLA 10.0 μg/ml alone",46.2 ± 19.8%
same,"Thiols, intracellular (CMFDA)[%]","[2]; Table 5, 96 h, αLA 10.0 μg/ml alone",62.4 ± 6.3%
same,"Thiols, intracellular (CMFDA)[%]","[2]; Table 6, 24 h, αLA 10.0 μg/ml alone",60.3 ± 21.0%
same,"Thiols, intracellular (CMFDA)[%]","[2]; Table 6, 48 h, αLA 10.0 μg/ml alone",58.0 ± 68.6%
same,"Thiols, intracellular (CMFDA)[%]","[2]; Table 6, 72 h, αLA 10.0 μg/ml alone",46.2 ± 19.8%
same,"Thiols, intracellular (CMFDA)[%]","[2]; Table 6, 96 h, αLA 10.0 μg/ml alone",62.4 ± 6.3%
same,Phagoburst (mfi) [%],"[3]; 24 h, αLA 10.0 μg/ml alone",59.0 ± 11.7%
same,Phagoburst (mfi) [%],"[3]; 48 h, αLA 10.0 μg/ml alone",60.2 ± 12.4%
same,Phagoburst (mfi) [%],"[3]; 72 h, αLA 10.0 μg/ml alone",50.7 ± 9.0%
same,Phagoburst (mfi) [%],"[3]; 96 h, αLA 10.0 μg/ml alone",64.9 ± 14.3%
same,phagocytosis rate,[3],had not altered
same,"Thiols, intracellular (CMFDA)[%]","[4]; Table 1, 24 h",70.2 ± 8.4%
same,"Thiols, intracellular (CMFDA)[%]","[4]; Table 1, 48 h",58.9 ± 10.4%
same,"Thiols, intracellular (CMFDA)[%]","[4]; Table 1, 72 h",78.1 ± 30.0%
same,"Thiols, intracellular (CMFDA)[%]","[4]; Table 1, 96 h",72.5 ± 19.1%
same,"Thiols, intracellular (CMFDA)[%]","[4]; Table 3, 24 h",69.2 ± 28.2%
same,"Thiols, intracellular (CMFDA)[%]","[4]; Table 3, 48 h",91.1 ± 16.6%
same,"Thiols, intracellular (CMFDA)[%]","[4]; Table 3, 72 h",88.6 ± 26.2%
same,"Thiols, intracellular (CMFDA)[%]","[4]; Table 3, 96 h",114.8 ± 33.2%
"Nc1c(Br)cc(Br)cc1CN[C@H]1CC[C@H](O)CC1 [Ambroxol, ambroxol]","Thiols, intracellular (CMFDA)[%]","[2]; 24 h, Ambroxol [10.0 μ/ml] alone",67.4 ± 16.4%
same,"Thiols, intracellular (CMFDA)[%]","[2]; 48 h, Ambroxol [10.0 μ/ml] alone",61.8 ± 11.5%
same,"Thiols, intracellular (CMFDA)[%]","[2]; 72 h, Ambroxol [10.0 μ/ml] alone",61.6 ± 20.8%
same,"Thiols, intracellular (CMFDA)[%]","[2]; 96 h, Ambroxol [10.0 μ/ml] alone",67.1 ± 8.4%
same,cellular thiol expression,"[2]; Example 3, monosubstances",only a marginal rise
same,Phagoburst (mfi) [%],"[3]; 24 h, Ambroxol 10 μM alone",53.3 ± 10.9%
same,Phagoburst (mfi) [%],"[3]; 48 h, Ambroxol 10 μM alone",59.2 ± 12.4%
same,Phagoburst (mfi) [%],"[3]; 72 h, Ambroxol 10 μM alone",55.2 ± 19.2%
same,Phagoburst (mfi) [%],"[3]; 96 h, Ambroxol 10 μM alone",61.9 ± 22.1%
same,phagocytosis rate,[3],had not altered
"COc1cc(C2Oc3cc([C@H]4Oc5cc(O)cc(O)c5C(=O)[C@@H]4O)ccc3OC2CO)ccc1O (stereo partly shown) [Silibinin, silibinin]","Thiols, intracellular (CMFDA)[%]","[2]; 24 h, Silibinin 70 μg/ml alone",56.1 ± 12.4%
same,"Thiols, intracellular (CMFDA)[%]","[2]; 48 h, Silibinin 70 μg/ml alone",59.0 ± 56.8%
same,"Thiols, intracellular (CMFDA)[%]","[2]; 72 h, Silibinin 70 μg/ml alone",44.7 ± 14.0%
same,"Thiols, intracellular (CMFDA)[%]","[2]; 96 h, Silibinin 70 μg/ml alone",49.4 ± 14.5%
same,Phagoburst (mfi) [%],"[3]; 24 h, Silibinin 70.0 μg/ml alone",55.1 ± 12.2 %
same,Phagoburst (mfi) [%],"[3]; 48 h, Silibinin 70.0 μg/ml alone",57.6 ± 8.5%
same,Phagoburst (mfi) [%],"[3]; 72 h, Silibinin 70.0 μg/ml alone",54.2 ± 13.8%
same,Phagoburst (mfi) [%],"[3]; 96 h, Silibinin 70.0 μg/ml alone",59.9 ± 21.2%
